Results as given in patent US11202791B2, “Compositions containing tannic acids and uses thereof” (SyneuRx International (Taiwan) Corp., priority 2016, dated 2021).

Tests used:
Assay type in all cases: in vivo, C57BL/6J male mice
[1] = tested on: MK-801 treated mice; assay: Prepulse inhibition in MK-801-treated mice
[2] = tested on: MK-801 treated mice; assay: Sucrose preference (anhedonia) in MK-801 treated mice; conditions: MK-801 alone 0.2 mg/kg i.p.
Protocol: (§1) Each mouse in Groups 2-5 received an acute administration of MK-801 (Sigma-Aldrich, USA) dissolved in normal saline, 0.1 mg/kg for open field and Barnes maze tasks, and 0.2 mg/kg for prepulse inhibition and sucrose preference tasks by i.p. injection) 20 minutes prior to the behavioral tests. Each mouse in Groups 3-6 received an acute oral administration of tannic acids (Merck Millipore, Germany; dissolved in PBS, 10, 30, or 100 mg/kg, p.o.) 20 minutes prior to the MK-801 administration.
Sucrose preference test has been commonly examined in mouse models of several mental illnesses, including, but not limited to, depression, major depression disorder, anhedonia, negative symptoms of schizophrenia, chronic mild and unpredictable stress (see Anderson et al., 2006; Carvalho et al., 2013; Briones et al., 2011; Der-Avakian and Markou, 2012; Tye et al., 2013; Edwards and Koob, 2012; Brigman et al., 2010; Koo and Duman, 2007; Nestler and Hyman, 2010; Overstreet, 2012; Papp et al., 1991; Santiago et al., 2010; Skalisz et al., 2002; Szczypka et al., 2001; Taylor et al., 2010; Vardigan et al., 2010; Willner et al., 1987; You et al., 2011).

[3] = tested on: MK-801 treated mice; assay: Open field, MK-801-induced hyper-locomotion
Protocol: Each mouse in Groups 2-6 received an acute administration of MK-801 (Sigma-Aldrich, USA) dissolved in normal saline, 0.1 mg/kg, i.p.) 20 minutes prior to the behavioral tests. Each mouse in Groups 3-6 received an acute administration of tannic acids (Sigma-Aldrich, USA; dissolved in PBS, 10, 15, 20 or 30 mg/kg, i.p.) 20 minutes prior to the MK-801 administration.
as §1
Each mouse in Groups 2-5 received an acute administration of 0.2 mg/kg MK-801 (Sigma-Aldrich, USA) dissolved in normal saline by i.p. injection 20 minutes prior to the locomotion activity test. […]
The open field task is a common measurement of novelty induced exploratory behavior and general activity in both mice and rats. […] Their spontaneous locomotor activities were measured for 30 minutes using the SMART video tracking system (Panlab, Harvard Apparatus). The travel distance of each mouse was measured as an index of locomotion activity.

C[C@]12N[C@H](Cc3ccccc31)c1ccccc12 [MK-801, dizocilpine]
prepulse inhibition vs control group ([1]; MK-801 alone 0.2 mg/kg i.p. (Example 4)): robust prepulse inhibition deficits
prepulse inhibition vs control group ([1]; MK-801 alone 0.3 mg/kg i.p., all prepulse intensities (Example 9)): robust prepulse inhibition deficits
preference toward the sucrose solution (2%) vs control group [2]: did not show the preference toward the sucrose solution
locomotion activity vs control group ([3]; MK-801 alone 0.1 mg/kg i.p. (Example 3)): hyper-locomotion activity
locomotion activity vs control group ([3]; MK-801 alone 0.2 mg/kg i.p. (Example 9)): hyper-locomotion activity
